# Legend:
# Experiment in all cases: relative viability (nuclei count vs DMSO), 5 days (fraction); higher = more cells survive
# [1] = tested on: NCI-H1437
# Outline: (§1)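 Relative viability is defined as nuclei in treated wells over nuclei in vehicle wells. Duplicate plates were run and medians reported. Lung cancer cell lines in 1536-well plates were dosed by pin tool one day after seeding, with one drug or with a fixed anchor-drug dose plus five library-drug doses (not always all listed) in √10 steps, and nuclei were counted after 5 days.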
# [2] = tested on: BEN
# Outline: as §1
# [3] = tested on: LXF-289
# Outline: as §1
# [4] = tested on: HARA
# Outline: as §1
# [5] = tested on: A-427
# Outline: as §1
# [6] = tested on: LK-2
# Outline: as §1
# [7] = tested on: NCI-H1793
# Outline: as §1
# [8] = tested on: LOU-NH91
# Outline: as §1
# [9] = tested on: NCI-H2405
# Outline: as §1
# [10] = tested on: NCI-H1993
# Outline: as §1
# [11] = tested on: NCI-H2085
# Outline: as §1
# [12] = tested on: NCI-H3122
# Outline: as §1
# [13] = tested on: NCI-H1755
# Outline: as §1
# [14] = tested on: NCI-H2342
# Outline: as §1
# [15] = tested on: RERF-LC-KJ
# Outline: as §1
# [16] = tested on: LU99A
# Outline: as §1
# [17] = tested on: PC-14
# Outline: as §1
# [18] = tested on: NCI-H661
# Outline: as §1
# [19] = tested on: NCI-H23
# Outline: as §1
# [20] = tested on: LCLC-103H
# Outline: as §1
# [21] = tested on: NCI-H2170
# Outline: as §1
# [22] = tested on: NCI-H1666
# Outline: as §1
smiles,measurement,setting,value
C=C1C(=O)O[C@@H](CCCCCCCC)[C@@H]1C(=O)O [C-75] + Nc1nc2[nH]cc(CCc3ccc(C(=O)N[C@@H](CCC(=O)O)C(=O)O)cc3)c2c(=O)[nH]1 [Pemetrexed] (partner 0.2 µM),relative viability,[1]; first compound 0.08 µM,0.314
same,relative viability,[1]; first compound 0.253 µM,0.324
same,relative viability,[1]; first compound 0.8 µM,0.321
same,relative viability,[1]; first compound 8 µM,0.269
same,relative viability,[2]; first compound 0.08 µM,0.753
same,relative viability,[2]; first compound 0.253 µM,0.816
same,relative viability,[2]; first compound 0.8 µM,0.688
same,relative viability,[2]; first compound 2.53 µM,0.842
same,relative viability,[2]; first compound 8 µM,0.766
same,relative viability,[3]; first compound 0.08 µM,0.834
same,relative viability,[3]; first compound 0.253 µM,0.906
same,relative viability,[3]; first compound 0.8 µM,0.858
same,relative viability,[3]; first compound 2.53 µM,0.886
same,relative viability,[3]; first compound 8 µM,0.904
same,relative viability,[4]; first compound 0.08 µM,0.273
same,relative viability,[4]; first compound 0.253 µM,0.254
same,relative viability,[4]; first compound 0.8 µM,0.233
same,relative viability,[4]; first compound 2.53 µM,0.222
same,relative viability,[4]; first compound 8 µM,0.299
same,relative viability,[5]; first compound 0.08 µM,0.949
same,relative viability,[5]; first compound 0.253 µM,0.774
same,relative viability,[5]; first compound 0.8 µM,0.813
same,relative viability,[5]; first compound 2.53 µM,0.71
same,relative viability,[5]; first compound 8 µM,0.871
same,relative viability,[6]; first compound 0.08 µM,0.214
same,relative viability,[6]; first compound 0.253 µM,0.301
same,relative viability,[6]; first compound 0.8 µM,0.215
same,relative viability,[6]; first compound 2.53 µM,0.2
same,relative viability,[6]; first compound 8 µM,0.246
same,relative viability,[7]; first compound 0.08 µM,0.702
same,relative viability,[7]; first compound 0.253 µM,0.954
same,relative viability,[7]; first compound 2.53 µM,0.59
same,relative viability,[7]; first compound 8 µM,0.958
same,relative viability,[8]; first compound 0.08 µM,0.308
same,relative viability,[8]; first compound 0.253 µM,0.362
same,relative viability,[8]; first compound 0.8 µM,0.386
same,relative viability,[8]; first compound 8 µM,0.378
same,relative viability,[9]; first compound 0.08 µM,1
same,relative viability,[9]; first compound 0.253 µM,0.763
same,relative viability,[9]; first compound 0.8 µM,1.12
same,relative viability,[9]; first compound 2.53 µM,0.605
same,relative viability,[9]; first compound 8 µM,1.01
same,relative viability,[10]; first compound 0.08 µM,0.564
same,relative viability,[10]; first compound 0.253 µM,0.716
same,relative viability,[10]; first compound 0.8 µM,0.541
same,relative viability,[10]; first compound 2.53 µM,0.652
same,relative viability,[10]; first compound 8 µM,0.478
same,relative viability,[11]; first compound 0.08 µM,0.875
same,relative viability,[11]; first compound 0.253 µM,0.738
same,relative viability,[11]; first compound 0.8 µM,0.857
same,relative viability,[11]; first compound 2.53 µM,0.788
same,relative viability,[11]; first compound 8 µM,0.902
same,relative viability,[12]; first compound 0.08 µM,0.2
same,relative viability,[12]; first compound 0.253 µM,0.208
same,relative viability,[12]; first compound 0.8 µM,0.181
same,relative viability,[12]; first compound 2.53 µM,0.189
same,relative viability,[12]; first compound 8 µM,0.185
same,relative viability,[13]; first compound 0.08 µM,0.457
same,relative viability,[13]; first compound 0.253 µM,0.468
same,relative viability,[13]; first compound 0.8 µM,0.46
same,relative viability,[13]; first compound 2.53 µM,0.391
same,relative viability,[13]; first compound 8 µM,0.438
same,relative viability,[14]; first compound 0.08 µM,0.815
same,relative viability,[14]; first compound 0.253 µM,0.771
same,relative viability,[14]; first compound 0.8 µM,0.693
same,relative viability,[14]; first compound 2.53 µM,0.62
same,relative viability,[14]; first compound 8 µM,0.766
same,relative viability,[15]; first compound 0.08 µM,0.456
same,relative viability,[15]; first compound 0.253 µM,0.487
same,relative viability,[15]; first compound 0.8 µM,0.469
same,relative viability,[15]; first compound 2.53 µM,0.46
same,relative viability,[15]; first compound 8 µM,0.461
same,relative viability,[16]; first compound 0.08 µM,0.191
same,relative viability,[16]; first compound 0.253 µM,0.212
same,relative viability,[16]; first compound 0.8 µM,0.195
same,relative viability,[16]; first compound 2.53 µM,0.19
same,relative viability,[16]; first compound 8 µM,0.21
same,relative viability,[17]; first compound 0.08 µM,0.141
same,relative viability,[17]; first compound 0.253 µM,0.146
same,relative viability,[17]; first compound 0.8 µM,0.137
same,relative viability,[17]; first compound 2.53 µM,0.141
same,relative viability,[17]; first compound 8 µM,0.131
same,relative viability,[18]; first compound 0.08 µM,0.919
same,relative viability,[18]; first compound 0.253 µM,0.925
same,relative viability,[18]; first compound 0.8 µM,0.856
same,relative viability,[18]; first compound 2.53 µM,0.783
same,relative viability,[18]; first compound 8 µM,0.881
same,relative viability,[19]; first compound 0.08 µM,0.716
same,relative viability,[19]; first compound 0.253 µM,1.03
same,relative viability,[19]; first compound 0.8 µM,0.546
same,relative viability,[19]; first compound 2.53 µM,0.406
same,relative viability,[19]; first compound 8 µM,0.443
same,relative viability,[20]; first compound 0.08 µM,0.464
same,relative viability,[20]; first compound 0.253 µM,0.428
same,relative viability,[20]; first compound 0.8 µM,0.458
same,relative viability,[20]; first compound 2.53 µM,0.326
same,relative viability,[20]; first compound 8 µM,0.433
same,relative viability,[21]; first compound 0.08 µM,0.244
same,relative viability,[21]; first compound 0.253 µM,0.271
same,relative viability,[21]; first compound 0.8 µM,0.286
same,relative viability,[21]; first compound 2.53 µM,0.266
same,relative viability,[21]; first compound 8 µM,0.282
same,relative viability,[22]; first compound 0.08 µM,0.882
same,relative viability,[22]; first compound 0.253 µM,0.828
same,relative viability,[22]; first compound 0.8 µM,0.815
same,relative viability,[22]; first compound 8 µM,0.796

# — the supplement of paper PMC10307832
